In patent publication US10391150B2, “Treatments for migraine and related disorders” (The University of Chicago, priority 2011, dated 2019):

Tested on: TNF-α mRNA
Test: TNF-α mRNA after SD in slice cultures
Type: cell-based, rat
Conditions: two hours after SD evoked every 7-9 minutes for an hour
Description: This prompted the inventors to examine whether insulin could reduce SD susceptibility by increasing CA3 pyramidal neuron bursting. The inventors induced SD trans-synaptically in rat HSC using electrical stimuli (100 μs pulses @ 10 Hz for 1 s) ranging from 1 to 10,000 nC in order to determine SD threshold in sham and experimental groups (Pusic et al., 2011). Results were based on n≥3-6/group. […] This insulin dose approximates the pharmacological levels seen in humans treated with nasal insulin. […] The inventors hypothesized that the effect of insulin occurred through IGF-1 receptor cross-talk.
After an hour of SD, slices were allowed to recover for 2 hours and then harvested for total RNA isolation and PCR amplification of cytokine targets. […] Next, dilution curve amplifications of primers were checked to be sure primers produced uniform amplification differences. For example, optimal amplifications show a uniform increase in Ct thresholds. In contrast, amplifications are not uniform with defective primers.
These positive samples were used for PCR array screening. Next, PCR array technology was used as a means more sensitive than traditional gene chips to look for evidence of T-cells in adult hippocampal slice cultures. The gene expression screen for inflammatory cytokine changes was completed by RT^2 Profiler™ PCR Arrays.

## Insulin-like growth factor 1 [IGF-1]
  TNF-α mRNA levels: did not involve a change in TNF-α mRNA levels
